Laboratory results reported in patent publication US20220213170A1, “PEPTIDES” (Hubro Therapeutics AS, priority 2019, published 2022).
Where no end group is shown, it is not given here.

Legend:
[1] = test system: tumour infiltrating Th cells in MSI+ tumours; settings: cited from earlier work
[2] = test system: T cells (PBMC) from healthy donors; experiment: T-cell proliferation (3H-thymidine uptake, stimulation index) after in vitro stimulation of PBMC with fsp2+fsp4 cocktail; format: cell-based, human; settings: for Immune response of Donor 3: Donor 3, stimulation with fsp2 and fsp4 mixture, FIG. 11; for Immunogenicity relative to fsp3 and fsp4: FIGS. 10 and 11, peptides with wild-type TGFβR2 amino acids vs without; for Immunogenicity (T cell proliferation, stimulation index): first and second round of stimulation with fsp2+fsp4, 10 μM test peptide, FIGS. 10-12
Method: Fresh buffy coats from four healthy donors were obtained from a blood bank.
Peripheral blood mononuclear cells (PBMC) isolated from fresh buffy coats from four healthy donors were counted and suspended in DC medium to 15*10^6 cells/ml, and subsequently diluted with DC-medium to 4*10^6 cells/ml (Table 6).
Four 24-well plates were used for each donor, with 4*10^6 cells per well (each well has a volume of 1 ml).
Peptide cocktail: Solution of peptides fsp2+fsp4, containing 10 μM of each peptide. 40 μl peptide solution was added to each well.
The plates were incubated in a cell incubator for 14 days (37° C., 5% CO2). IL-2 and IL-7 were added on day 3. The cells were inspected daily.
Test peptides: fsp2+fsp4 (SEQ ID NOs: 5 and 7), fsp1 (SEQ ID NO: 4), fsp2 (SEQ ID NO: 5), fsp3 (SEQ ID NO: 6), fsp4 (SEQ ID NO: 7), fsp5 (SEQ ID NO: 3).
Cells and reagents were added to plate wells (in triplicate) as described in Tables 7 and 8 below. The total volume added to each well was 0.20 ml. • T cells (PBMC): 50 000 cells/well (0.25*10^6 cells/ml) • APC: Irradiated (30Gy, 8 minutes) autologous feeder cells: 50 000 cells/well • Peptide (fspx): […] peptide/well (each peptide), concentration: 10 μM peptide. (fsp was dissolved in DMSO before dilution to correct concentration)
The plates were incubated in a cell incubator for 48 hours (37° C., 5% CO2).
After incubation for 48 hours, 20 μl 3H-tThymidine solution (5 μCi/ml) was added to each well and the plates were incubated for approximately 17 hours (37° C., 5% CO2).
After 17 hours the cells were harvested (Unifilters) and dried on the filters at 45° C. until completely dry. After covering the bottom of the Unifilters with adhesive covers (delivered with the Unifilters) 25 μl micro scintillation liquid was added to each well, the plate was covered with TopSeal and 3H-Thymidine uptake was measured as counts per minute (CPM) using a microplate scintillation counter.
The T cell proliferation results after the first round of in vitro stimulation with the cocktail of fsp2 and fsp4 peptides are presented as stimulation index (SI) in FIG. 10. SI=mean CPM (triplicates) of (T cells+APC+test peptide(s)) divided by mean CPM (triplicates) of (T cells+APC). SI≥2 is a clear signal of immunogenicity.
PBMCs harvested after the first in vitro stimulation were re-stimulated in vitro according to the protocol set out above, with 2×10^6 cells per well. T-cell proliferation was tested according to the protocol set out above.
The T cell proliferation results after a second round of in vitro stimulation with the cocktail of fsp2 and fsp4 peptides are presented as stimulation index (SI) in FIG. 11.

Peptide solubility = format: physicochemical
Method: The peptide was difficult to dissolve and it was attempted to dissolve the crude fsp5 (SEQ ID NO: 3) (˜150 mg) in approximately 4 ml 50% MeCN in water under gentle heating.
Another batch of fsp5 (SEQ ID NO: 3) was prepared, dissolved in neat DMSO under gentle heating and purified by preparative HPLC. Again, only very small amounts of purified fsp5 (SEQ ID NO: 3) were obtained.

[3] = Peptide stability (purity by UPLC after lyophilisation or storage); format: physicochemical; settings: purified peptide, dropped from around 90% before lyophilisation
Method: A batch of fsp5 (SEQ ID NO: 3) was prepared by solid phase peptide synthesis (SPPS) by using FMOC chemistry and Prelude synthesizer (Gyros Protein Technologies Inc., USA). The crude peptide was analysed by UPLC and MS. […] UPLC system: Column; Acquity UPLC BEH C18 […], […], detection; PDA 210-500 nm, solvent A); 0.1% TFA in water, solvent B; 0.1% TFA in MeCN, gradient: 20-70% B (2-10 minutes, linear).
When the purity of the small amount of purified fsp5 (SEQ ID NO: 3) was reassessed by UPLC after lyophilisation, the purity had dropped from around 90% to below 50% as shown in FIG. 4.

[4] = test system: T-cells from PMBCs from four healthy donors; experiment: T-cell proliferation (stimulation index) after induction of PBMC with fsp2, fsp8 and fsp9 mixture; format: cell-based, human; settings: for Immunogenicity (T-cell proliferation, stimulation index): first round of stimulation, T-cells induced with fsp2+fsp8+fsp9, FIG. 13
Method: The same protocol as that set out in Example 7 was used to test the immunogenicity of fsp6 and fsp7 (SEQ ID NO: 26 and SEQ ID NO: 27, respectively), except for the peptide mixture used to induce T-cells from PMBCs from fresh buffy coats from four healthy donors. The peptide mixture used in this Example to induce T-cells from PMBCs was made up of fsp2 (SEQ ID NO: 5; 10 μM), fsp8 (SEQ ID NO: 31; 10 μM) and fsp9 (SEQ ID NO: 32; 10 μM). Fsp8 (SEQ ID NO: 31; […]) is a peptide of ASTE1 having a −1a frameshift mutation, and fsp9 (SEQ ID NO: 32; […]) is a peptide of TAF1β having a −1a frameshift mutation.
At day 14 after induction, a T-cell proliferation assay was carried out as in Example 7, using fsp2 (SEQ ID NO: 5), fsp6 (SEQ ID NO: 26) and fsp7 (SEQ ID NO: 27) as test peptides. As fsp8 and fsp9 have very different amino acid sequences from fsp2, only fsp2 would be able to induce T-cells which are capable of recognising and being stimulated by fsp2, fsp6 and fsp7. […] Two further rounds of T-cell stimulation were also carried out, with a T-cell proliferation assay being carried out 14 days after each stimulation.
The T-cell proliferation results after the first round of in vitro stimulation are presented as stimulation index (SI) in FIG. 13. […] It is also expected, in view of the results shown in FIGS. 11 and 12, that a peptide having the sequence of fsp6 (SEQ ID NO: 26) but having an amino acid substitution corresponding to that in fsp2, and particularly a C-to-G amino acid substitution as in fsp2, is also immunogenic and is useful as a vaccine or treatment against cancer. […] Thus, it is expected that fsp6a (SEQ ID NO: 28), which is identical to fsp6 (SEQ ID NO: 26) except for the same C-to-G amino acid substitution as fsp2 (SEQ ID NO: 5), will also be immunogenic.

CTL = settings: cited from earlier work
T-cells = settings: after four rounds of stimulation of the T-cells; cited from earlier work
[5] = test system: colorectal cancer cell line HCT116; settings: cell line carries the corresponding frameshift mutation; cited from earlier work
[6] = test system: CTLs (HLA-A2.1 restricted); settings: cited from earlier work
[7] = patients recognising the peptide

AMTTSSSQKNITPAILTCC [p537, prior art peptide of mutTGFβR2]
Immunogenicity (Saeterdal, PNAS) [1]: not immunogenic

KCIMKEKKSLVRLSSCVPVALMSA (listed as Homo sapiens) [fsp1]
Immune response of Donor 3 [2]: showed an immune response | Immunogenicity relative to fsp3 and fsp4 [2]: more immunogenic | Immunogenicity (T cell proliferation, stimulation index) [2]: immunogenic

KCIMKEKKSLVRLSSCVPVALMSAMTTSSSQKN (listed as Homo sapiens) [fsp5]
Solubility: effect of water on crude DMSO solution (Peptide solubility; addition of even small amounts of water to crude DMSO solution): precipitation of the peptide | Solubility (Peptide solubility; crude peptide ~150 mg in approximately 4 ml 50% MeCN in water under gentle heating): no clear solution could be obtained | Immunogenicity relative to fsp3 and fsp4 [2]: more immunogenic | Immunogenicity (T cell proliferation, stimulation index) [2]: immunogenic | Purity by UPLC after lyophilisation (stability) [3]: below 50%

KGIMKEKKSLVRLSSCVPVALMSA (not fully specified) [fsp2]
Immune response of Donor 3 [2]: showed an immune response | Immunogenicity relative to fsp3 and fsp4 [2]: more immunogenic | Immunogenicity (T cell proliferation, stimulation index) [2]: immunogenic | Immunogenicity relative to fsp7 ([4]; FIG. 13): much more immunogenic

PKCIMKEKKKSLVRLSSCV [p541, prior art peptide of mutTGFβR2]
Immunogenicity (Saeterdal, PNAS) [1]: immunogenic | Induction of T-cell responses in patients [1]: able to induce T-cell responses in some patients

RLSSCVPVA [p573, prior art peptide of mutTGFβR2]
Generation of CTL line and clones (CTL): able to generate a CTL line and several CTL clones | Immunogenicity (Saeterdal, Cancer Immunol Immunother) (CTL): immunogenic | Immunogenicity (FIG. 14 of EP1078000) (T-cells): not immunogenic | Lysis of HCT116 [5]: able to lyse | Activation of specific CTLs in vitro ([6]; HLA-A2.1 restricted): capable of activating specific CTLs | Immunogenicity (FIG. 1 of Linnebacher et al.) [6]: immunogenic

SLVRLSSCV [p523, prior art peptide of mutTGFβR2]
Immunogenicity (FIG. 14 of EP1078000) (T-cells): immunogenic | Immunogenicity (FIG. 1 of Linnebacher et al.) [6]: not immunogenic

SLVRLSSCVPVALMSAMTTSSSQ [p538, prior art peptide of mutTGFβR2]
Immunogenicity (Saeterdal, PNAS) [1]: highly immunogenic | Recognition by patients having spontaneous MSI+ colon cancer [1, 7]: two of three | Recognition by patients with HNPCC [1, 7]: all three

SPKCIMKEKKSLVRLSSCVPVA [P540, prior art peptide of mutTGFβR2]
Immunogenicity (Saeterdal, PNAS) [1]: immunogenic | Induction of T-cell responses in patients [1]: able to induce T-cell responses in some patients

SSGVPVALMSAMTTSSSQKN (also: 2TFA salt) [fsp4]
Immunogenicity (T cell proliferation, stimulation index) [2]: immunogenic

fsp6: Peptide of SEQ ID NO: 26; same sequence as fsp2 but truncated at the C-terminus and without C-to-G substitution (KCIMKEKKSLVRLSSCV; listed as Homo sapiens)
Immunogenicity relative to fsp2 ([4]; FIG. 13): less immunogenic | Immunogenicity relative to fsp7 ([4]; FIG. 13): much more immunogenic | Immunogenicity (T-cell proliferation, stimulation index) [4]: immunogenic

fsp7: Peptide of SEQ ID NO: 27; same amino acid sequence as fsp2 but truncated at the N-terminus (VRLSSCVPVALMSA; listed as Homo sapiens)
Immunogenicity (T-cell proliferation, stimulation index) [4]: too truncated at the N-terminus compared to fsp2 (SEQ ID NO 5) to be immunogenic
